According to ChEMBL document CHEMBL1201862, “PubChem BioAssay data set” (2004):
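Results reflect a 48-hour exposure of cells in 96-well plates to compound at five concentrations. GI50 is the concentration that inhibits growth by half.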 The source made the active and inactive calls. Cut-off read from the data, not from the text of the source: active = GI50 up to about 1.1 µM and inactive = higher.

Assays:
Test in all cases: NCI-60 cell line screen, 48 h
UACC-257 = system: UACC-257
A549 = system: A549
SK-OV-3 = system: SK-OV-3
SK-MEL-5 = system: SK-MEL-5
HCT-116 = system: HCT-116
SR = system: SR
CCRF-CEM = system: CCRF-CEM
SNB-75 = system: SNB-75
KM12 = system: KM12
SN12C = system: SN12C
ACHN = system: ACHN
SF-539 = system: SF-539
OVCAR-8 = system: OVCAR-8
NCI-H23 = system: NCI-H23
HOP-92 = system: HOP-92
K562 = system: K562
NCI-H460 = system: NCI-H460
OVCAR-3 = system: OVCAR-3

SMILES | GI50 (UACC-257) | GI50 (A549) | GI50 (SK-OV-3) | GI50 (SK-MEL-5) | GI50 (HCT-116) | GI50 (SR) | GI50 (CCRF-CEM) | GI50 (SNB-75) | GI50 (KM12) | GI50 (SN12C) | GI50 (ACHN) | GI50 (SF-539) | GI50 (OVCAR-8) | GI50 (NCI-H23) | GI50 (HOP-92) | GI50 (K562) | GI50 (NCI-H460) | GI50 (OVCAR-3)
O=C(c1ccccc1)c1ccc2c(c1)N=C(c1ccc(Cl)c(Cl)c1)CC(c1ccc3ccccc3c1)N2 (centres undefined) | > 100 µM (inactive) | > 100 µM (inactive) | > 100 µM (inactive) | > 100 µM (inactive) | > 100 µM (inactive) | > 100 µM (inactive) | 67.6 µM (inactive) | > 100 µM (inactive) | > 100 µM (inactive) | > 100 µM (inactive) | > 100 µM (inactive) | > 100 µM (inactive) | > 100 µM (inactive) | > 100 µM (inactive) | > 100 µM (inactive) | > 100 µM (inactive) | > 100 µM (inactive) | 
Cn1c(-c2ccccc2)cc(-c2cccs2)c1-c1cccs1 | > 35.4 µM (inactive) | > 100 µM (inactive) | > 100 µM (inactive) | 45.3 µM (inactive) | > 100 µM (inactive) |  | 18.2 µM (inactive) | > 100 µM (inactive) | 22.3 µM (inactive) | > 100 µM (inactive) |  | > 100 µM (inactive) | > 100 µM (inactive) | 49.3 µM (inactive) | > 29.2 µM (inactive) | 51.6 µM (inactive) | 71.9 µM (inactive) | > 100 µM (inactive)
CCN(C1=CC(=O)NC2CCCCN12)c1ccccc1 (centres undefined) | > 100 µM (inactive) | > 100 µM (inactive) | > 100 µM (inactive) | > 100 µM (inactive) | > 100 µM (inactive) |  | > 100 µM (inactive) | > 100 µM (inactive) | > 100 µM (inactive) | > 100 µM (inactive) | > 100 µM (inactive) | > 100 µM (inactive) | > 100 µM (inactive) | > 100 µM (inactive) |  | > 100 µM (inactive) | > 100 µM (inactive) | > 100 µM (inactive)
COc1ccc(NC(=O)/C(Cc2cc(=O)oc3cc(O)ccc23)=N\NC(C)(C)C)c(OC)c1 | > 100 µM (inactive) | > 100 µM (inactive) | > 100 µM (inactive) | > 100 µM (inactive) | > 100 µM (inactive) | > 100 µM (inactive) | > 100 µM (inactive) |  | > 100 µM (inactive) | > 100 µM (inactive) | > 100 µM (inactive) | > 100 µM (inactive) | > 100 µM (inactive) | > 100 µM (inactive) | 53 µM (inactive) | > 100 µM (inactive) | > 100 µM (inactive) | > 100 µM (inactive)
CC1=C(C(=O)Nc2c(C)cccc2C)C(c2ccccc2Cl)C(C(=O)Nc2c(C)cccc2C)=C(C)N1 | > 100 µM (inactive) | > 100 µM (inactive) | > 100 µM (inactive) | > 100 µM (inactive) |  |  | > 100 µM (inactive) | 94.8 µM (inactive) | > 100 µM (inactive) | > 100 µM (inactive) | > 100 µM (inactive) | > 100 µM (inactive) | > 100 µM (inactive) | > 100 µM (inactive) | > 100 µM (inactive) | > 100 µM (inactive) | > 100 µM (inactive) | > 100 µM (inactive)
NC1=NN(c2ccccc2)C(=O)C1C(=O)C(=O)Nc1ccccc1 (centres undefined) | > 100 µM (inactive) | > 100 µM (inactive) | > 100 µM (inactive) | > 100 µM (inactive) | > 100 µM (inactive) |  | > 100 µM (inactive) |  | > 100 µM (inactive) | > 100 µM (inactive) | > 100 µM (inactive) | > 100 µM (inactive) | > 100 µM (inactive) | > 100 µM (inactive) | > 100 µM (inactive) | > 100 µM (inactive) | > 100 µM (inactive) | > 100 µM (inactive)
CCOc1ccccc1NC(=O)C1=C(C)NC(C)=C(C(=O)Nc2ccccc2OCC)C1c1ccc([N+](=O)[O-])cc1 | 31.2 µM (inactive) | > 100 µM (inactive) | > 100 µM (inactive) |  | > 100 µM (inactive) | 47.6 µM (inactive) |  | 53.1 µM (inactive) | 41 µM (inactive) | > 100 µM (inactive) | > 100 µM (inactive) | > 100 µM (inactive) |  | 44 µM (inactive) | 10.5 µM (inactive) |  | 63.2 µM (inactive) | > 100 µM (inactive)
C(=N\CC/N=C/c1cccc2ccccc12)/c1cccc2ccccc12 | > 100 µM (inactive) | > 100 µM (inactive) | 22.1 µM (inactive) | > 100 µM (inactive) | > 100 µM (inactive) | > 100 µM (inactive) |  | 12.6 µM (inactive) | > 100 µM (inactive) | > 100 µM (inactive) | > 100 µM (inactive) | > 100 µM (inactive) | > 100 µM (inactive) | > 100 µM (inactive) | < 0.01 µM (active) | > 100 µM (inactive) | > 100 µM (inactive) | 
CCC(C(=O)O)c1ccc(OCc2ccccc2)cc1 (centres undefined) | > 100 µM (inactive) | > 100 µM (inactive) | > 100 µM (inactive) | > 100 µM (inactive) | > 100 µM (inactive) | > 100 µM (inactive) | > 100 µM (inactive) | 70 µM (inactive) | > 100 µM (inactive) | > 100 µM (inactive) | > 100 µM (inactive) | > 100 µM (inactive) |  | > 100 µM (inactive) | > 100 µM (inactive) | > 100 µM (inactive) | > 100 µM (inactive) | > 100 µM (inactive)
O=C(Nc1cccc2c1[nH]c1c(-c3ccccc3)nccc12)c1ccccc1[N+](=O)[O-] | 74.6 µM (inactive) | 24.4 µM (inactive) |  |  | 26.4 µM (inactive) | 12.5 µM (inactive) | 21.9 µM (inactive) | 29.7 µM (inactive) | 9.55 µM (inactive) | 49.1 µM (inactive) | 20.9 µM (inactive) | 20.2 µM (inactive) | 24.8 µM (inactive) | 34.7 µM (inactive) | 2.81 µM (inactive) | 21.9 µM (inactive) | 18.6 µM (inactive) | 
Cc1cc2ncn(-c3nc4ccccc4nc3C(C#N)S(C)(=O)=O)c2cc1C (centres undefined) | > 100 µM (inactive) | > 100 µM (inactive) | 0.946 µM (active) | > 100 µM (inactive) | > 100 µM (inactive) | > 100 µM (inactive) | > 100 µM (inactive) | > 100 µM (inactive) | > 100 µM (inactive) | > 100 µM (inactive) | > 100 µM (inactive) | > 100 µM (inactive) | > 100 µM (inactive) | > 100 µM (inactive) |  | > 100 µM (inactive) | > 100 µM (inactive) | > 100 µM (inactive)
CCN(CC)CCCCC1CCN(CC(=O)N2c3cc(Cl)ccc3NC(=O)CC2C)CC1 (centres undefined) | > 100 µM (inactive) | > 100 µM (inactive) | > 100 µM (inactive) | > 100 µM (inactive) | > 100 µM (inactive) | 74 µM (inactive) | > 100 µM (inactive) |  |  | > 100 µM (inactive) | > 100 µM (inactive) |  |  | > 100 µM (inactive) | > 100 µM (inactive) | 79.6 µM (inactive) | > 100 µM (inactive) | > 100 µM (inactive)
CCCCNC(=O)C1C(=O)N(CCCC)C(=O)/C1=N\N (centres undefined) | > 100 µM (inactive) |  | > 100 µM (inactive) | > 100 µM (inactive) | > 100 µM (inactive) |  |  | > 100 µM (inactive) | > 100 µM (inactive) | > 100 µM (inactive) | > 100 µM (inactive) | > 100 µM (inactive) | > 100 µM (inactive) | > 100 µM (inactive) | > 100 µM (inactive) | > 100 µM (inactive) | > 100 µM (inactive) | > 100 µM (inactive)
COC(=O)C1(O)CC(=O)CCC1c1ccc(OC)cc1 (centres undefined) | > 100 µM (inactive) | > 100 µM (inactive) | > 100 µM (inactive) | > 100 µM (inactive) | > 100 µM (inactive) | > 100 µM (inactive) | > 100 µM (inactive) | > 100 µM (inactive) | > 100 µM (inactive) | > 100 µM (inactive) | > 100 µM (inactive) | > 100 µM (inactive) | > 100 µM (inactive) | > 100 µM (inactive) | > 100 µM (inactive) | > 100 µM (inactive) | > 100 µM (inactive) | > 100 µM (inactive)
COc1ccc2[nH]c(=O)cc(C)c2c1[N+](=O)[O-] | > 100 µM (inactive) | > 100 µM (inactive) | > 100 µM (inactive) | > 100 µM (inactive) | > 100 µM (inactive) |  | > 100 µM (inactive) | 10.5 µM (inactive) | > 100 µM (inactive) | > 100 µM (inactive) | > 100 µM (inactive) | > 100 µM (inactive) | > 100 µM (inactive) | > 100 µM (inactive) | 32.4 µM (inactive) | > 100 µM (inactive) | > 100 µM (inactive) | > 100 µM (inactive)
Cc1ccccc1NC(=O)C1C(=O)N(c2ccccc2C)C(=O)/C1=N\NC(N)=O (centres undefined) | > 100 µM (inactive) | > 100 µM (inactive) |  | > 100 µM (inactive) | > 100 µM (inactive) | > 100 µM (inactive) | > 100 µM (inactive) | 37.5 µM (inactive) | > 100 µM (inactive) | > 100 µM (inactive) | > 100 µM (inactive) | > 100 µM (inactive) | > 100 µM (inactive) | > 100 µM (inactive) | > 100 µM (inactive) | > 100 µM (inactive) | > 100 µM (inactive) | > 100 µM (inactive)
O[C@H]1[C@H](O)[C@@H](O)CN2CC[C@H](O)[C@H]12 [CASTANOSPERMINE] | > 100 µM (inactive) | > 100 µM (inactive) | > 100 µM (inactive) | > 100 µM (inactive) | > 100 µM (inactive) |  | > 100 µM (inactive) | > 100 µM (inactive) | > 100 µM (inactive) | > 100 µM (inactive) |  | > 100 µM (inactive) | > 100 µM (inactive) | > 100 µM (inactive) | > 100 µM (inactive) | > 100 µM (inactive) | > 100 µM (inactive) | > 100 µM (inactive)
